Results: patent US8268635B2, “Methods of identifying agents that selectively activate p38 and/or NKkB signaling” (priority 2006, dated 2012)
Where no end group is shown, it is not given here.

Legend:
[1] = tested on: ERK1/ERK2; assay: ERK1/ERK2 activation in neutrophils in suspension; type: cell-based, human; conditions: TNF, TNF70-80 15 min; PMA 100 nM 5 min
Method: (§1) The cells were lysed and the lysate assessed by western blot analysis for the level of dual-phosphorylated ERK1/ERK2 (top panel) and ERK2 protein (bottom panel). […] The level of myelin basic protein phosphorylation was quantitated by an Instant Imager.
Neutrophils were prepared from peripheral blood of healthy donors by a rapid single-step technique (Kumaratilake, L. M., Rathjen, D. A., Mack, P., Widmer, F., Prasertsiriroj, V., and Ferrante, A. (1995) J. Clin. Invest. 95: 2315-2323) using Hypaque-Ficoll and according to the institution's guidelines on human ethics. […]
KHS (hereon referred to as “GCKR”) activity was assayed as described previously using myelin basic protein as a substrate (Shi, C. S., Leonardi, A., Kyriakis, J., Siebenlist, U., and Kerhl, J. H. (1999) J. Immunol. 163: 3279-3285). ASK-1 activation was determined in immunoprecipitates of ASK-1 by autophosphorylation (Kyriakis, J. M., and Auruch, J. (2001) Physiol. Rev. 81: 807-869). p38 and ERK activities were determined as described using myelin basic protein as a substrate (Hii, C. S., Huang, Z. H., Bilney, A., Costabile, M., Murray, A. W., Rathjen, D. A., Der, C. J., and Ferrante, A. (1998) J. Biol. Chem. 273: 19277-19282). […]

[2] = tested on: neutrophils; assay: Neutrophil superoxide production, lucigenin chemiluminescence assay; type: cell-based, human
Method: Neutrophils were pre-treated with varying concentrations of SB203580 for 30 min and then exposed to 10 μM TNF70-80. The lucigenin enhanced chemiluminescence produced by the cells was measured in a luminometer. The peak initial rate of chemiluminescence produced is presented as the mean±sem of six experiments. The response in the presence of the inhibitor is expressed as a % of the control response.
Neutrophil superoxide production was measured as the chemiluminescence generated by the reduction of lucigenin, essentially as described previously (Kumaratilake, L. M., Rathjen, D. A., Mack, P., Widmer, F., Prasertsiriroj, V., and Ferrante, A. (1995) J. Clin. Invest. 95: 2315-2323). Briefly, to 1×10^6 neutrophils in 400 μl of HBSS was added 100 μl of stimulus and 500 μl of 250 μg/ml of lucigenin. The chemiluminescence was measured in a luminometer (Berthold Technologies, Bad Wildbad, Germany) over a 20 min period and the data imported into Microsoft Excel (Redmond, Wash.).
The cells were placed in a water-jacketed luminometer chamber (37° C.) (Autolumat Plus Model LB 953, Berthold Technologies, Bundoora, Australia) and the resulting light output recorded in millivolts (mV) at 10 second intervals. The data was analysed with Multiuser software (Berthold Tubemaster, Bundoora, Australia). The results are expressed as peak superoxide produced.
Various concentrations of TNFR1 fragment or diluent were added to neutrophils (106 in 100 μl HBSS) and incubated at 37° C. for 30 min 5% CO2 in air. After incubation 500 μl of lucigenin (250 μM, final), 100 μl of TNF70-80 (100 μg) were added and the final volume was adjusted to 1 ml.
Superoxide production by human neutrophils was measured by the reduction of the fluorescent lucigenin, (9,9′-bis(N-methyl-acridinium nitrate) (Sigma Chemical Company). This provides a direct and specific measure of agonist-induced superoxide production. Lucigenin-dependant chemiluminescence was measured as described previously Gyllenhannar H. (1987) J. Immunol. Methods 97:209-213. Briefly, 50 μl of 100 mg/ml of peptide or diluent and 250 ml of lucigenin was added to neutrophils (5×10^5 in 50 μl HBSS). The cells were placed in a water-jacketed luminometer chamber (37° C.) (Autolumat Plus Model LB 953, Berthold Technologies, Bundoora, Australia) and the resulting light output recorded in millivolts (mV) at 10 second intervals. The data was analysed with Multi-user software (Berthold Tubemaster, Bundoora, Australia).
Data are presented as mean±SEM of 3 experiments.

[3] = tested on: JNK; assay: JNK phosphorylation in HL60 cells (western blot); type: cell-based; conditions: 15 min; TNF 100 U/ml, anisomycin 2.5 μg/ml
[4] = tested on: p38; assay: p38 kinase activity in human neutrophils; type: cell-based
Method: as §1
Neutrophils were prepared from peripheral blood of healthy donors by a rapid single-step technique (Kumaratilake, L. M., Rathjen, D. A., Mack, P., Widmer, F., Prasertsiriroj, V., and Ferrante, A. (1995) J. Clin. Invest. 95: 2315-2323) using Hypaque-Ficoll and according to the institution's guidelines on human ethics. […] These were either used as cells in suspension or as adhered neutrophils by adding the cells to plasma coated plates as previously described (Powell, W., Gravel, S., Halwani, F., Hii, C. S., Huang, Z. H., Tan, A. M., and Ferrante, A. (1997) J. Immunol. 159: 2952-2959).
(§2) KHS (hereon referred to as “GCKR”) activity was assayed as described previously using myelin basic protein as a substrate (Shi, C. S., Leonardi, A., Kyriakis, J., Siebenlist, U., and Kerhl, J. H. (1999) J. Immunol. 163: 3279-3285). ASK-1 activation was determined in immunoprecipitates of ASK-1 by autophosphorylation (Kyriakis, J. M., and Auruch, J. (2001) Physiol. Rev. 81: 807-869). p38 and ERK activities were determined as described using myelin basic protein as a substrate (Hii, C. S., Huang, Z. H., Bilney, A., Costabile, M., Murray, A. W., Rathjen, D. A., Der, C. J., and Ferrante, A. (1998) J. Biol. Chem. 273: 19277-19282). […] A solid phase assay using glutathione-S-transferase (GST)-conjugated-jun (1-79) was employed to assay JNK activity (Hii, C. S., Huang, Z. H., Bilney, A., Costabile, M., Murray, A. W., Rathjen, D. A., Der, C. J., and Ferrante, A. (1998) J. Biol. Chem. 273: 19277-19282). Phosphorylated ASK-1, myelin basic protein and GST-jun (1-79) were fractionated on 8, 16 and 12% SDS polyacrylamide gels, respectively, and the bands were detected and radioactivity determined using an Instant Imager (Packard Instruments, Canberra, Australia).
(§3) The level of myelin basic protein phosphorylation was quantitated by an Instant Imager.

[5] = tested on: p38; assay: p38 activity in HUVEC (immunoprecipitation, myelin basic protein substrate); type: cell-based, human; conditions: 5 min; TNF 1,000 U/ml, peptides 10 μM
Method: as §3, §2

[6] = tested on: p38; assay: p38 activation in 70Z/3 cells transfected with hTNFR1 constructs; type: cell-based, mouse; conditions: 5 min; TNF 1000 U/ml, peptides 10 μM
Method: The cells were then lysed, protein contents quantified and subjected to p38 kinase assay by Western blot. The results are presented as the mean+−sem of 3 experiments.
The cells were maintained in RPMI-1640 medium with 4.5 g/L glucose, 2 mM L-glutamine, […] 2-mercaptoethanol and 10% FCS in an atmosphere of 95% air and 5% CO2. Cells were plated onto 10 cm plates at 4×10^7 cells in 15 ml culture medium. Before performing transient transfection, plasmid DNA (hTNFR1), kindly provided by Dr M. Kronke, Institute of Medical Microbiology and Hygiene, Medical Center University of Cologne, Koln, Germany (Adam, D., Wiegmann, K., Adam-Klages, S., Ruff A., and Kronke, M. (1996) J. Biol. Chem. 271: 14617-22), (20 μg in 1 ml of RPMI1640) was mixed with LipofectAMINE 2000 (Invitrogen) (60 μl in 1 ml of RPMI) and the mixture were left at room temperature for 20 min. The mixture was directly added to the cells and incubated for 24 h. The cells were washed twice with HBSS before use.

CCCCCCCCCCCCCC(=O)O[C@@H]1[C@@H](C)[C@@]2(O)[C@@H](C=C(CO)C[C@]3(O)C(=O)C(C)=C[C@@H]23)[C@@H]2C(C)(C)[C@]12OC(C)=O [PMA, reference compound]
activity/dual phosphorylation of ERK in neutrophils in suspension [1]: increased the dual phosphorylation of ERK1/ERK2

C[S+]([O-])c1ccc(-c2nc(-c3ccncc3)c(-c3ccc(F)cc3)[nH]2)cc1 (stereo not drawn) [SB203580, reference compound]
effect on TNF70-80 stimulated neutrophil chemiluminescence response ([2]; pre-incubated with inhibitor 30 min, then 10 μM TNF70-80): significantly reduced

COc1ccc(C[C@H]2NC[C@H](O)[C@H]2OC(C)=O)cc1 [anisomycin, reference compound]
JNK phosphorylation in HL60 cells [3]: increased JNK phosphorylation

EDSGTT [Peptide M4-3]
effect on TNF (mononuclear leukocyte fluid)-induced p38 activation in human neutrophils ([4]; peptide pre-incubated with TNF medium (≈0.12 ng/ml TNF) 20 min, neutrophils 30 min): inhibition of TNF (mononuclear leukocyte fluid)-induced p38 activation

H-Gly-Gly-Asp-Pro-Gly-Ile-Val-Thr-His-Ser-OH (H-GGDPGIVTHS-OH) [control peptide 205, control peptide, reference compound]
activity of p38 in HUVEC [5]: failed to stimulate p38
activity of p38 in neutrophils in suspension ([4]; 5 min, TNF 100 or 1000 U/ml, TNF70-80 10-50 μM): did not activate p38
p38 activation in 70Z/3 cells transfected with wild type hTNFR1 [6]: failed to activate p38

H-Gly-Thr-Thr-OH (listed as Homo sapiens) [Peptide M4-2]
effect on TNF-induced superoxide generation of neutrophils ([2]; peptide mixed with TNF at 37° C. for 20 min, then added to neutrophils): Inhibits TNF-Induced Superoxide Generation

His6-Leu-Lys-Pro-Gly-Thr-Thr-OH (HHHHHHLKPGTT-OH; listed as Homo sapiens) [Peptide M4]
effect on TNF70-80-induced superoxide production in neutrophils ([2]; TNFR1 fragment pre-incubated with neutrophils 30 min, then TNF70-80 (100 μg)): can block the biological activity of the TNF70-80
